Reference: patent US20060052415A1, “N-{2-chloro-4-[(6,7-dimethoxy-4-quinolyl)oxy]phenyl}-n'-(5-methyl-3-isoxazolyl)urea salt in crystalline form” (KIRIN BEER KABUSHIKI KAISHA, priority 2002, published 2006)
“Also recorded” adds a separate entry of the source.

Columns and labels:
Assay type in all cases: physicochemical
[1] = Stability of crystal against physical stress (grinding in a mortar); details: ground in an agate or porcelain mortar
Procedure: (§1) X-ray diffraction patterns of crystals were taken using Cu-Kα radiation (40 kV, 40 mA, λ=1.541 angstroms) with a powder X-ray diffraction apparatus (X-ray diffraction RINT DMAX-2000, manufactured by Rigaku Industrial Corporation) (scanning speed: 5 degrees/min, scanning range: 5.000 to 40.000 degrees, filter: Kβ filter). Based on powder X-ray diffraction patterns thus obtained, peak positions and relative intensity (%) were determined for peaks with a relative intensity of not less than 20%.
Stability of Crystal Against Physical Stress
Each of form I to III crystals of hydrochloride, form I crystal of nitrate, form I and II crystals of sulfate, form I crystal of methanesulfonate, form I and II crystals of p-toluenesulfonate, and form I and II crystals of maleate of N-{2-chloro-4-[(6,7-dimethoxy-4-quinolyl)oxy]phenyl}-N′-(5-methyl-3-isoxazolyl)urea was ground in a mortar. In grinding each crystal in the mortar, about 1 mg of each crystal sample was placed and ground in an agate mortar or a porcelain mortar. For each sample before and after grinding, a powder X-ray diffraction chart was measured by method 1 to evaluate the stability of the crystal against physical stress.

[2] = Stability of crystal under high humidity (40° C., 75% RH) conditions; details: stored at 40° C. and 75% RH for 2 weeks
Procedure: as §1
Stability of Crystal Under High Humidity (40° C., 75% RH) Conditions
(§2) Form I to III crystals of hydrochloride, form I crystal of nitrate, form I and II crystals of sulfate, form I crystal of methanesulfonate, form I and II crystals of p-toluenesulfonate, and form I and II crystals of maleate of N-{2-chloro-4-[(6,7-dimethoxy-4-quinolyl)oxy]phenyl}-N′-(5-methyl-3-isoxazolyl)urea were stored under conditions of 40° C. and 75% RH for 2 weeks. […]

[3] = Stability of crystal under heating (73° C.) conditions; details: stored at 73° C. for 2 weeks
Procedure: as §1
Stability of Crystal Under Heating (73° C.) Conditions
as §2, with “at 73°” for “under conditions of 40°”, “C.” for “C. and 75% RH”

[4] = Hygroscopicity of crystal (weight change on storage); details: 40° C. and 75% RH; for hygroscopicity (level, in words): 2 weeks, based on weight change
Procedure: Hygroscopicity of Crystal
Form I to III crystals of hydrochloride, form I crystal of nitrate, form I and II crystals of sulfate, form I crystal of methanesulfonate, form I and II crystals of p-toluenesulfonate, and form I and II crystals of maleate of N-{2-chloro-4-[(6,7-dimethoxy-4-quinolyl)oxy]phenyl}-N′-(5-methyl-3-isoxazolyl)urea were stored under conditions of 40° C. and 75% RH for 2 weeks. Before and after the storage, the weight of each crystal was measured to determine a difference in weight between before the storage and after the storage.
For each crystal, the hygroscopicity was evaluated based on the weight change.

[5] = listed as form II crystal of hydrochloride, hydrochloride

Structure (SMILES) | stability of crystal under high humidity conditions (change of powder X-ray diffraction chart) [2] | stability of crystal under high temperature conditions (change of powder X-ray diffraction chart) [3] | stability of crystal against physical stress (powder X-ray diffraction before and after grinding) [1] | hygroscopicity (level, in words) [4] | weight change (hygroscopicity) After 1 week [4] [%] | weight change (hygroscopicity) After 2 weeks [4] [%] | weight change (hygroscopicity) After 2 days [4] [%] | further results
COc1cc2nccc(Oc3ccc(NC(=O)Nc4cc(C)on4)c(Cl)c3)c2cc1OC.O=C(O)/C=C\C(=O)O [Form I crystal of maleate, N-{2-chloro-4-[(6,7-dimethoxy-4-quinolyl)oxy]phenyl}-N′-(5-methyl-3-isoxazolyl)urea maleate] | excellent stability | excellent stability |  |  |  |  |  | stability of crystal against physical stress (powder X-ray diffraction before and after grinding) ([1]; maleate): lowering in peak intensity; hygroscopicity (level, in words) ([4]; maleate): low level of hygroscopicity; also recorded: on a low level; weight change (hygroscopicity) After 1 week ([4]; maleate): 0.41%; weight change (hygroscopicity) After 2 weeks ([4]; maleate): 0.53%; weight change (hygroscopicity) After 2 days ([4]; maleate): 0.46%
COc1cc2nccc(Oc3ccc(NC(=O)Nc4cc(C)on4)c(Cl)c3)c2cc1OC.CS(=O)(=O)O [Form I crystal of methanesulfonate, N-{2-chloro-4-[(6,7-dimethoxy-4-quinolyl)oxy]phenyl}-N′-(5-methyl-3-isoxazolyl)urea methanesulfonate] | excellent stability | excellent stability | excellent stability | highly hygroscopic | 2.70 | 2.84 | 2.58 | 
COc1cc2nccc(Oc3ccc(NC(=O)Nc4cc(C)on4)c(Cl)c3)c2cc1OC.O=[N+]([O-])O [Form I crystal of nitrate, N-{2-chloro-4-[(6,7-dimethoxy-4-quinolyl)oxy]phenyl}-N′-(5-methyl-3-isoxazolyl)urea nitrate] | excellent stability | excellent stability | excellent stability | highly hygroscopic | 2.22 | 2.22 | 2.04 | 
COc1cc2nccc(Oc3ccc(NC(=O)Nc4cc(C)on4)c(Cl)c3)c2cc1OC.Cc1ccc(S(=O)(=O)O)cc1 [Form I crystal of p-toluenesulfonate, N-{2-chloro-4-[(6,7-dimethoxy-4-quinolyl)oxy]phenyl}-N′-(5-methyl-3-isoxazolyl)urea p-toluenesulfonate] | excellent stability | excellent stability | excellent stability |  |  |  |  | hygroscopicity (level, in words) ([4]; p-toluenesulfonate): low level of hygroscopicity; also recorded: on a low level; weight change (hygroscopicity) After 1 week ([4]; p-toluenesulfonate): 0.24%; weight change (hygroscopicity) After 2 weeks ([4]; p-toluenesulfonate): 0.25%; weight change (hygroscopicity) After 2 days ([4]; p-toluenesulfonate): 0.29%
COc1cc2nccc(Oc3ccc(NC(=O)Nc4cc(C)on4)c(Cl)c3)c2cc1OC.O=S(=O)(O)O [Form I crystal of sulfate, N-{2-chloro-4-[(6,7-dimethoxy-4-quinolyl)oxy]phenyl}-N′-(5-methyl-3-isoxazolyl)urea sulfate] |  |  | lowering in peak intensity | highly hygroscopic | 4.21 | 4.25 | 4.20 | stability of crystal under high humidity conditions (change of powder X-ray diffraction chart) ([2]; sulfate): converted to a mixture of form I crystal and a novel crystalline form; stability of crystal under high temperature conditions (change of powder X-ray diffraction chart) ([3]; listed as form I crystal of sulfate, sulfate): excellent stability
COc1cc2nccc(Oc3ccc(NC(=O)Nc4cc(C)on4)c(Cl)c3)c2cc1OC.Cl [Form II crystal of hydrochloride, N-{2-chloro-4-[(6,7-dimethoxy-4-quinolyl)oxy]phenyl}-N′-(5-methyl-3-isoxazolyl)urea hydrochloride] |  |  |  |  |  |  |  | stability of crystal against physical stress (powder X-ray diffraction before and after grinding) [1, 5]: excellent stability; stability of crystal under high humidity conditions (change of powder X-ray diffraction chart) [2, 5]: excellent stability; stability of crystal under high temperature conditions (change of powder X-ray diffraction chart) [3, 5]: excellent stability; hygroscopicity (level, in words) ([4]; hydrochloride): low level of hygroscopicity; also recorded: on a low level; weight change (hygroscopicity) After 1 week ([4]; hydrochloride): 0.29%; weight change (hygroscopicity) After 2 weeks ([4]; hydrochloride): 0.20%; weight change (hygroscopicity) After 2 days ([4]; hydrochloride): 0.30%
COc1cc2nccc(Oc3ccc(NC(=O)Nc4cc(C)on4)c(Cl)c3)c2cc1OC.O=C(O)/C=C\C(=O)O [Form II crystal of maleate, N-{2-chloro-4-[(6,7-dimethoxy-4-quinolyl)oxy]phenyl}-N′-(5-methyl-3-isoxazolyl)urea maleate] | excellent stability | excellent stability |  |  |  |  |  | stability of crystal against physical stress (powder X-ray diffraction before and after grinding) ([1]; maleate): excellent stability; hygroscopicity (level, in words) ([4]; maleate): low level of hygroscopicity; also recorded: on a low level; weight change (hygroscopicity) After 1 week ([4]; maleate): 0.42%; weight change (hygroscopicity) After 2 weeks ([4]; maleate): 0.57%; weight change (hygroscopicity) After 2 days ([4]; maleate): 0.60%
COc1cc2nccc(Oc3ccc(NC(=O)Nc4cc(C)on4)c(Cl)c3)c2cc1OC.Cc1ccc(S(=O)(=O)O)cc1 [Form II crystal of p-toluenesulfonate, N-{2-chloro-4-[(6,7-dimethoxy-4-quinolyl)oxy]phenyl}-N′-(5-methyl-3-isoxazolyl)urea p-toluenesulfonate] | excellent stability | excellent stability | excellent stability |  |  |  |  | hygroscopicity (level, in words) ([4]; p-toluenesulfonate): low level of hygroscopicity; also recorded: on a low level; weight change (hygroscopicity) After 1 week ([4]; p-toluenesulfonate): 0.70%; weight change (hygroscopicity) After 2 weeks ([4]; p-toluenesulfonate): 0.80%; weight change (hygroscopicity) After 2 days ([4]; p-toluenesulfonate): 0.84%
COc1cc2nccc(Oc3ccc(NC(=O)Nc4cc(C)on4)c(Cl)c3)c2cc1OC.O=S(=O)(O)O [Form II crystal of sulfate, N-{2-chloro-4-[(6,7-dimethoxy-4-quinolyl)oxy]phenyl}-N′-(5-methyl-3-isoxazolyl)urea sulfate] |  |  |  |  |  |  |  | stability of crystal under high humidity conditions (change of powder X-ray diffraction chart) ([2]; listed as from II crystal of sulfate, sulfate): converted to a novel crystalline form; stability of crystal under high temperature conditions (change of powder X-ray diffraction chart) ([3]; listed as form II crystal of sulfate, sulfate): converted to a novel crystalline form
